# In publication PMC6688628, “N-Substituted Pyrrole Derivative 12m Inhibits HIV-1 Entry by Targeting Gp41 of HIV-1 Envelope Glycoprotein” (Frontiers in Pharmacology, 2019):
# Assays:
# HIV-1 NL4-3D36G = type: cell-based; details: T20-sensitive parent strain, p24 ELISA, mean ± SD
# [1] = system: T20-resistant HIV-1 strains; assay: Anti-HIV-1 activity, panel of T20-resistant mutants; type: cell-based; details: Human immunodeficiency virus 1; range over T20-resistant mutants; read-out: EC50 values against a series of T20-resistant mutants
# Protocol: The HIV-1 replication-inhibiting activity of compounds was determined as previously described ([Li et al., 2013]). Briefly, 1 × 10^4 TZM-bl or MT-2 cells were infected with primary HIV-1 strains or T20-resistant HIV-1 strains (100 TCID50) in 200 µl of RPMI-1640 medium containing 10% FBS in the presence or absence of compounds at graded concentrations for 12 h. The culture medium was replaced with fresh medium without the compounds. After culture for an additional 48 h, supernatants or cells were collected from each well. For the primary HIV-1 strains, the cells were treated using a luciferase kit. Briefly, the cells were lysed with the lysis reagent and were transferred into a 96-well flat-bottom luminometer plate after three washes with phosphate-buffered saline (PBS) (Costar Corning Inc., Corning, NY), followed by addition of the luciferase substrate included in the luciferase kit (Promega Corp., Madison, WI). The luciferase activity was measured immediately by an Ultra 384 microplate reader (Tecan, Research Triangle Park, NC). T20 was used as a positive control. For the T20-resistant HIV-1 strains, 100 µl of culture supernatant was mixed with 100 µl of 5% Triton X-100. […] Absorbance at 450 nm was recorded in an ELISA reader (Ultra 384, Tecan). EC50 values were calculated using the computer program CalcuSyn ([Chou and Talalay, 1984]).
# [2] = XTT assay, U87-CD4-CCR5 cells; type: cell-based; details: human
# Protocol: The in vitro cell viability of NSPD-12m on HIV-1 target cells (U87-CD4-CXCR4, U87-CD4-CCR5, TZM-bl, and MT-2 cells) and HIV effector cells (CHO-WT cells) was analyzed by an XTT colorimetric assay. Briefly, 100 µl of 5 × 10^5/ml cells was mixed and incubated with 100 µl of NSPD-12m at graded concentrations at 37°C for 3 days. Then, 50 µl of XTT solution (1 mg/ml) containing 0.02 µM of phenazinemethosulphate (PMS) was added to each well, and the cells were incubated at 37°C for another 4 h. The absorbance at 450 nm was measured with an ELISA reader. The 50% cytotoxicity concentrations (CC50) were calculated using the CalcuSyn software ([Chou and Talalay, 1984]).
# gp41 6-HB (N36/C34) [3] = target: T1, gp41 6-HB (N36/C34) (Human immunodeficiency virus type 1 group M subtype B, UniProt P04578); assay: Sandwich ELISA for gp41 6-HB formation; type: biochemical, HIV-1; details: sandwich ELISA with mAb NC-1; 0.5-µM N36 and C34
# T1 construct: purchased GL Biochem of China; host or cells: chemical solid-phase Fmoc synthesis
# T1 sequence (P04578 546-581): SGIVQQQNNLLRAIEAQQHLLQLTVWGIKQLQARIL
# Protocol: The inhibition of gp41 6-HB formation by NSPD-12m was determined by a sandwich ELISA as previously described ([Liu et al., 2007]). In brief, the wells of a 96-well polystyrene plate (Corning) were first precoated with 2 µg/ml IgG purified from rabbit antisera against the N36/C34 complex at 4°C overnight. In addition, the wells were blocked by 2% dry nonfat milk at 37°C for 1 h. NSPD-12m at graded concentrations was incubated with 0.5-µM N36 at 37°C for 30 min, followed by the addition of 0.5-µM C34 at 37°C for another 30-min incubation. Afterward, the previously mentioned mixtures were added to the prepared wells and incubated at 37°C for another 1 h. Then, 1 µg/ml mAb NC-1, biotin-labeled goat anti-mouse IgG (1:10,000 diluted in PBS buffer with 2% dry nonfat milk), SA-HRP (1:20,000 diluted in PBS buffer with 10% goat serum), TMB, and 1-M H2SO4 were added sequentially. A450 was measured by an ELISA reader, and EC50 was calculated using CalcuSyn software ([Chou and Talalay, 1984]). NB-64, a small-molecule HIV entry inhibitor targeting gp41, and ADS-J1 were used as positive controls.
# gp41 6-HB (N36/C34) [4] = target: T1, gp41 6-HB (N36/C34); assay: N-PAGE for gp41 6-HB formation; type: biochemical, HIV-1; details: 400, 200, 100, 50, and 25 μM incubated with N36 before C34; dose-dependent
# Protocol: The inhibition of gp41 6-HB formation by NSPD-12m was further confirmed by N-PAGE as reported previously ([Liu et al., 2005]). Briefly, NSPD-12m at the indicated concentrations was incubated with the peptide N36 (100 μM in PBS) at 37°C for 30 min before the addition of the peptide C34 (100 μM in PBS). After incubation at 37°C for another 30 min, the mixture was diluted in Tris-glycine native sample buffer (Invitrogen, Carlsbad, CA) and then loaded onto 10 × 1.0-cm precast Tris-glycine gels (18%, Invitrogen) at 20 µl/well. Gel electrophoresis was carried out at constant voltage of 120 V at room temperature (RT) for 2 h in Tris-glycine native running buffer. Immediately after electrophoresis, the gel was stained by Coomassie blue (Invitrogen) and imaged by the FluorChem 8800 Imaging System (Alpha Innotech, San Leandro, CA). ADS-J1 (1 mM in PBS), a small-molecule HIV-1 entry inhibitor that blocks gp41 6-HB formation, was used as a positive control ([Wang et al., 2009]).
# [5] = system: HIV-1JR-FL Env mutant Q577A pseudovirus; type: cell-based; details: compared with wild-type HIV-1JR-FL pseudovirus
smiles,measurement,setting,value
Cc1cc(/C=C2\SC(=S)N(Cc3ccccc3C(F)(F)F)C2=O)c(C)n1-c1ccc(O)c(C(=O)O)c1 [NSPD-12m],IC50,HIV-1 NL4-3D36G,10.8 ± 1.67 µM
same,IC90,HIV-1 NL4-3D36G,55.4 ± 16.9 µM
same,EC50,[1],15.7 to 24.7 µM
same,CC50 at 3 days,[2],84.7 ± 14.5 µM
same,CC90 at 3 days,[2],102 ± 18.3 µM
same,EC50,gp41 6-HB (N36/C34) [3],23 ± 1.44 µM
same,intensity of the 6-HB band (upper position) in N-PAGE,gp41 6-HB (N36/C34) [4],decreased
same,inhibitory activity against Q577A mutant pseudovirus,[5],retained the inhibitory activity
